In patent publication US12607622B2, “Method for diagnosing and monitoring inflammatory disease progression” (MCMASTER UNIVERSITY, priority 2013, dated 2026):

Test system: BDNF
Assay: BDNF transcript expression in the uterus of ovariectomized mice by Real Time PCR
Format: in vivo
Details: estradiol primed, Real Time PCR relative expression, FIG. 8
Method: BDNF transcripts were measured in the murine uterus of ovariectomized mice by Real Time PCR and relative expression quantified in mice receiving saline (Control (n=4)), estradiol primed then estradiol (E2 (n=6)), estradiol primed then progesterone (P4 (n=6)), estradiol primed then estradiol+progesterone (E2+P4 (n=6)), or estradiol primed then saline (Saline (n=4). [table]

CC(=O)[C@H]1CC[C@H]2[C@@H]3CCC4=CC(=O)CC[C@]4(C)[C@H]3CC[C@]12C [P4, progesterone]
BDNF expression in the uterus: significantly increased
